In patent US20250019387A1 (Frontier Medicines Corporation, priority 0001, published 2025):

Target: KRAS G12C and cRAF (Ras-binding domain) interaction (Homo sapiens (Human), UniProt P01116, C118S/C51S/C80L/G12C)
Assay: Inhibition of KRAS G12C and cRAF binding (AlphaScreen)
Details: GMPPNP-loaded KRAS G12C, 19-20 hours incubation with compound; read-out: IC50 (Inhibition of KRAS G12C and cRAF Binding)
How it was run: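 Compounds (DMSO) preincubated 19-20 h at room temperature, then RBD with streptavidin donor and glutathione acceptor beads added in 25 mM Hepes pH 7.4, 150 mM NaCl, 5 mM MgCl2, 0.01% Triton X-100, 2% DMSO for 60-90 min. Emission 570 nm (excitation 680 nm); IC50 by 4-parameter fit. Counter-screen used biotin-AviTag-GST instead of RBD.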

KRAS G12C and cRAF (Ras-binding domain) interaction, sequence (P01116 other isoform, or with tags, fused parts or gaps G12C/C51S/C80L/C118S): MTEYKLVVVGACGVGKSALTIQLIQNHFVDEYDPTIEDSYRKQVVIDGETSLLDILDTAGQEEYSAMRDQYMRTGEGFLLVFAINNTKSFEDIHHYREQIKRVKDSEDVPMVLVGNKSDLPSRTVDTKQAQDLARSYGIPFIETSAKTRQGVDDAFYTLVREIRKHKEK

Row | Structure (SMILES) | IC50
1 | C=CC(=O)N1C[C@H](O)[C@@H](N(C)c2nc(OC[C@@]34CCCN3C[C@H](F)C4)nc3c(F)c(-c4cccc5cccc(Cl)c45)ncc23)C1 [Example 57, 1-((3S,4S)-3-((7-(8-chloronaphthalen-1-yl)-8-fluoro-2-(((2R,7aS)-2-fluorohexahydro-1H-pyrrolizin-7a-yl)methoxy)pyrido[4,3-d]pyrimidin-4-yl)(methyl)amino)-4-hydroxypyrrolidin-1-yl)prop-2-en-1-one] | 100 to 500 nM
2 | COC(=O)/C=C/C(=O)N1CC[C@@H](N(C)c2nc(OC[C@@H]3CCCN3C)nc3c(F)c(-c4cccc5cccc(Cl)c45)ncc23)C1 [Example 27, methyl(E)-4-((R)-3-((7-(8-chloronaphthalen-1-yl)-8-fluoro-2-(((S)-1-methylpyrrolidin-2-yl)methoxy)pyrido[4,3-d]pyrimidin-4-yl)(methyl)amino)pyrrolidin-1-yl)-4-oxobut-2-enoate] | < 10 nM
3 | COC(=O)/C=C/C(=O)N1CCC(N(C)c2nc(OC[C@@H]3CCCN3C)nc3c2CCN(c2cccc4ccc(F)c(Cl)c24)C3)C1 (stereo partly drawn) [Example 2, methyl(E)-4-(3-((7-(8-chloro-7-fluoronaphthalen-1-yl)-2-(((S)-1-methylpyrrolidin-2-yl)methoxy)-5,6,7,8-tetrahydropyrido[3,4-d]pyrimidin-4-yl)(methyl)amino)pyrrolidin-1-yl)-4-oxobut-2-enoate] | 10 to 100 nM
4 | C=CS(=O)(=O)C1CCN(c2nc(OC[C@@H]3CCCN3C)nc3c2CCN(c2cccc4cccc(Cl)c24)C3)C1 (stereo partly drawn) [Example 51, 7-(8-chloronaphthalen-1-yl)-2-(((S)-1-methylpyrrolidin-2-yl)methoxy)-4-(3-(vinylsulfonyl)pyrrolidin-1-yl)-5,6,7,8-tetrahydropyrido[3,4-d]pyrimidine] | > 500 nM
5 | CN(CC1CN(C(=O)/C=C/c2nc(C3CC3)no2)C1)c1nc(OC[C@@]23CCCN2C[C@H](F)C3)nc2c(F)c(-c3cccc4cccc(Cl)c34)ncc12 [Example 104, (E)-1-(3-(((7-(8-chloronaphthalen-1-yl)-8-fluoro-2-(((2R,7aS)-2-fluorotetrahydro-1H-pyrrolizin-7a(5H)-yl)methoxy)pyrido[4,3-d]pyrimidin-4-yl)(methyl)amino)methyl)azetidin-1-yl)-3-(3-cyclopropyl-1,2,4-oxadiazol-5-yl)prop-2-en-1-one] | 100 to 500 nM
6 | CN1CCCC1C#CC(=O)N1CC[C@@H](N(C)c2nc(OC[C@@]34CCCN3C[C@H](F)C4)nc3c(F)c(-c4cccc5cccc(Cl)c45)ncc23)C1 (stereo partly drawn) [Example 66, 1-((R)-3-((7-(8-chloronaphthalen-1-yl)-8-fluoro-2-(((2R,7aS)-2-fluorotetrahydro-1H-pyrrolizin-7a(5H)-yl)methoxy)pyrido[4,3-d]pyrimidin-4-yl)(methyl)amino)pyrrolidin-1-yl)-3-(1-methylpyrrolidin-2-yl)prop-2-yn-1-one] | 10 to 100 nM

Same assay, conditions: additional exemplary compounds; KRAS G12C and cRAF binding; read-out: RAF1 RBD IC50

Row | Structure (SMILES) | IC50
7 | C=CC(=O)N1CC[C@H]2[C@@H]1CCN2c1nc(OC[C@@]23CCCN2C[C@H](F)C3)nc2c1CCN(c1cccc3cccc(Cl)c13)C2 | > 500 nM
8 | C=CC(=O)N1CCC1CN(C)c1nc(OC[C@@]23CCCN2C[C@H](F)C3)nc2c1CCN(c1cccc3cccc(Cl)c13)C2 (some centres unmarked) | > 500 nM
9 | CCOC/C=C/S(=O)(=O)CCN(C)c1nc(OCC23CCCN2CCC3)nc2c1CCN(c1cccc3cccc(Cl)c13)C2 | > 500 nM
10 | C=CC(=O)N1CC[C@H](Nc2nc(OC[C@@]34CCCN3C[C@H](F)C4)nc3c(F)c(-c4cccc5cccc(Cl)c45)ncc23)C1 | > 500 nM
11 | CN(CCS(=O)(=O)/C=C/CC1CC1)c1nc(OCC23CCCN2CCC3)nc2c1CCN(c1cccc3cccc(Cl)c13)C2 | > 500 nM
12 | C=CC(=O)N1CC(CN(C)c2nc(OC[C@]34CCCN3C[C@H](F)C4)nc3c(F)c(-c4cccc5cccc(Cl)c45)ncc23)C1 | > 500 nM
13 | O=C(/C=C/CN1CCOCC1)N1CC2(CCN(c3nc(OC[C@@]45CCCN4C[C@H](F)C5)nc4c(F)c(-c5cccc6cccc(Cl)c56)ncc34)C2)C1 | > 500 nM
14 | C=CC(=O)N1CC(CN(C)c2nc(OC[C@@]34CCCN3C[C@H](F)C4)nc3c(F)c(-c4cccc5cccc(Cl)c45)ncc23)C1 | 10 to 100 nM
